Reference: patent publication US10662174B2, “BTK inhibitor” (Hubei Bio-Pharmaceutical Industrial Technological Institute …, priority 2015, dated 2020)
Where two headings read alike, the source gives them in different places.

Molecular target: T1, BTK kinase (Homo sapiens, UniProt Q06187)
T1 construct: purchased Invitrogen PR5442A
Test: Assay of inhibition activity of BTK in vitro (HTRF kit, read on Envision)
Assay type: biochemical
Protocol: Assay of Inhibition Activity of BTK In Vitro
The inhibition of compounds on BTK kinase was evaluated by […] detected by Envision, using the IC50 value of the compounds as index.
BTK kinase: Invitrogen-PR5442A
HTRF Assay Kit: Cisbio-62TKOPEJ
Plate for compound preparation: Greiner-781280
Cisbio HTRF Kit: Cisbio-62TKOPEJ
Centrifuge: Eppendorf-5810R
Bravo: Agilent Technologies-Bravo
Gradient Dilution of Compounds: […]
The test compound was dissolved with DMSO to be of 1 mM as a stock solution. Such a stock solution was diluted with DMSO by 10-fold, thereby obtaining an initial solution in a concentration of […] which was added into wells at the second column in a plate. 20 μL DMSO was added to other wells using Bravo. Then, 10 μL of the initial solution was transferred from wells at the second column to wells at the third column, followed by mixing obtained solution in the wells at the third column, thereby obtain a first diluted solution in a concentration of 1/3 μM. Subsequently, 10 μL of the first diluted solution was further transferred from wells at the third column to wells at the fourth column, followed by mixing obtained solution in the wells at the fourth column, thereby obtain a second diluted solution in a concentration of 1/9 μM. Such a three-fold serial dilution was performed 10 times, with 11 solutions in series diluted concentrations and a final diluted solution in a concentration of 0.017 nM obtained.
All diluted solutions were further diluted by 25-fold with ultrapure water, thus obtain test solutions, which were equilibrated at r.t. for 30 min before use.
To 2.5 μL of test solution, which was pipetted into each well of Assay plate using Bravo, 5 μL kinase mixture was added using the multi-channel pipettor. The mixture was centrifuged at 1000 rpm for 20 s, followed by incubation at 23° C. for 30 min. The reaction was initiated by 2.5 μL ATP mixture which was pipetted into the wells by Multidrop.
The reaction mixture of BTK kinase (10 μL) included 1.0 nM BTK, 1 μM biotin-TK1 peptide and 20 μM ATP. The reaction buffer included 50 mM Hepes (pH7.5), 10 mM MgCl2 and 0.01 mM […]. The kinase mixture was reacted in incubator at 23° C. for 90 mim.
The reaction was stopped by adding 10 μL Detection Reagent to each well of Assay plate, and the plate was left in incubator at 23° C. for 1 h before read on Envision.
Data analysis: The IC50 values of compounds were calculated using Excel fit.

[1] = 1.0 nM BTK, 1 μM biotin-TK1 peptide, 20 μM ATP, 23° C., tested by Envision, read-out: BTK IC50

T1 sequence (Q06187 whole entry): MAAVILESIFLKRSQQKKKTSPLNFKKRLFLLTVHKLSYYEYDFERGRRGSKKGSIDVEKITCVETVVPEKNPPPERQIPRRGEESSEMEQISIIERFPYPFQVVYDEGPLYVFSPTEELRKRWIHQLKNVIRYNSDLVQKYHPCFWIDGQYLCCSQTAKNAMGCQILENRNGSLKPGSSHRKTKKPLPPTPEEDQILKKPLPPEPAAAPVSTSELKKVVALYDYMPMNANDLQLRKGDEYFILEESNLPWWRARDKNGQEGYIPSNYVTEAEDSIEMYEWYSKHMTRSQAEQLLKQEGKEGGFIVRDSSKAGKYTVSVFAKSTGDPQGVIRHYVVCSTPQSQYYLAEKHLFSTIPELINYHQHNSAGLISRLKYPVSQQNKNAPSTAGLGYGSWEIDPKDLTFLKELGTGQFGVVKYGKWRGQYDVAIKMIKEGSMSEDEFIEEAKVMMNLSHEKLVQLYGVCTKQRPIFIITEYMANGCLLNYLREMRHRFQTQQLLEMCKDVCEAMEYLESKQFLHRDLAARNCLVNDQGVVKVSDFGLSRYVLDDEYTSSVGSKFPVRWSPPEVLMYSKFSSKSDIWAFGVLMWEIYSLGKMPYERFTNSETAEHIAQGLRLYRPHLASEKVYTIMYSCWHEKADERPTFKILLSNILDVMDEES

## C=CC(=O)N[C@H]1CC[C@H](n2nc(-c3ccc(Oc4ccccc4)cc3)c3c(N)n[nH]c(=O)c32)CC1 [Example 63]
[1]
  IC50: < 100 nM

## C=CC(=O)N1CCCC(n2nc(-c3ccc(Oc4cccc(F)c4)cc3)c3c(N)n[nH]c(=O)c32)C1 (stereo not drawn) [Example 56]
[1]
  IC50: < 100 nM

## C=CC(=O)N1CCC[C@@H](Nc2cc3ncc(-c4ccc(Oc5ccccc5)cc4)c(=O)n3cn2)C1 [Example 17]
[1]
  IC50: 1000 to 10000 nM

## C=CC(=O)N1CCC[C@@H](n2nc(-c3ccc(Oc4ccc(C)cn4)cc3)c3c(N)n[nH]c(=O)c32)C1 [Example 91]
[1]
  IC50: < 100 nM

## Cc1c(-c2cc(Nc3ccc(N4CCN(C)CC4)cn3)c(=O)n(C)c2)cccc1-c1ccc(-c2ccccc2)n(C)c1=O [Example 7]
[1]
  IC50: 1000 to 10000 nM

## CN(C)/C=C/CC(=O)N1CCCC(n2nc(-c3ccc(Oc4ccccc4)cc3)c3c(N)n[nH]c(=O)c32)C1 (stereo not drawn) [Example 84]
[1]
  IC50: < 100 nM

## C=CC(=O)N1CCC[C@@H](n2cc(-c3ccc(Oc4ccccc4)cc3)c3c(N)n[nH]c(=O)c32)C1 [Example 53]
[1]
  IC50: < 100 nM

## C=CC(=O)N[C@H]1CC[C@@H](n2nc(-c3ccc(Oc4ccccc4F)cc3)c3c(N)n[nH]c(=O)c32)CC1 [Example 83]
[1]
  IC50: < 100 nM

## C=CC(=O)N(C)CCn1nc(-c2ccc(Oc3ccccc3)cc2)c2c(N)n[nH]c(=O)c21 [Example 31]
[1]
  IC50: < 100 nM

## C=CC(=O)N1CCC[C@@H]1Cn1nc(-c2ccc(Oc3ccccc3)cc2)c2c(N)n[nH]c(=O)c21 [Example 38]
[1]
  IC50: < 100 nM

## Nc1n[nH]c(=O)c2c1c(-c1ccc(Oc3ccccc3)cc1)nn2[C@@H]1CCCN(C(=O)/C=C/CN2CCOCC2)C1 [Example 36]
[1]
  IC50: < 100 nM

## CN1CCN(c2ccc(Nc3cc(-c4ccc5c(c4)c(C(=O)c4ccc(C6CC6)cc4F)cn5C)cn(C)c3=O)nc2)CC1 [Example 5]
  IC50: 1000 to 10000 nM

## C=CC(=O)N1CCC[C@@H](Nc2ncnc3[nH]cc(-c4ccccc4)c(=O)c23)C1 [Example 8]
[1]
  IC50: 1000 to 10000 nM

## C=CC(=O)N1CCC[C@@H](n2nc(-c3ccc(OC4Cc5ccccc5C4)cc3)c3c(N)n[nH]c(=O)c32)C1 [Example 74]
[1]
  IC50: < 100 nM

## C=CC(=O)N1CCCC(n2nc(-c3ccc(Oc4ccccc4)cc3)c3c(N)nn(CC(F)(F)F)c(=O)c32)C1 (stereo not drawn) [Example 87]
[1]
  IC50: 1000 to 10000 nM

## C=CC(=O)N(C)[C@H]1CC[C@@H](n2nc(-c3ccc(Oc4ccccc4)cc3)c3c(N)n[nH]c(=O)c32)CC1 [Example 82]
[1]
  IC50: < 100 nM

## CN1CCNC(=O)C1c1ccc(Nc2ccc(-c3ccc4c(c3)c(C(=O)c3ccc(C5CC5)cc3F)cn4C)n(C)c2=O)cc1 (stereo not drawn) [Example 16]
  IC50: 100 to 1000 nM

## C=CC(=O)N1CCCC(n2nc(-c3ccc(Oc4ccccc4)cc3)c3c(N)noc(=O)c32)C1 (stereo not drawn) [Example 70]
[1]
  IC50: 1000 to 10000 nM

## C=CC(=O)N1CCC[C@@H](n2nc(-c3ccc(Oc4ncccc4C)cc3)c3c(N)n[nH]c(=O)c32)C1 [Example 93]
[1]
  IC50: < 100 nM

## C=CS(=O)(=O)N[C@H]1CC[C@@H](n2nc(-c3ccc(Oc4ccccc4)cc3)c3c(N)n[nH]c(=O)c32)CC1 [Example 58]
[1]
  IC50: < 100 nM

## C=CC(=O)N1CCC[C@@H](n2nc(-c3ccc(-n4cc5ccccc5n4)cc3)c3c(N)n[nH]c(=O)c32)C1 [Example 48]
[1]
  IC50: < 100 nM

## CN(C)C/C=C/C(=O)N1CC[C@@H](n2nc(-c3ccc(Oc4ccccc4)cc3)c3c(N)n[nH]c(=O)c32)C1 [Example 61]
[1]
  IC50: < 100 nM

## C=CC(=O)N1CC(n2nc(-c3ccc(Oc4ccccc4)cc3)c3c(N)n[nH]c(=O)c32)C1 [Example 73]
[1]
  IC50: < 100 nM

## C=CC(=O)N1CCC[C@@H](n2nc(-c3ccc4c(cnn4-c4ccccc4)c3)c3c(N)n[nH]c(=O)c32)C1 [Example 47]
[1]
  IC50: 1000 to 10000 nM

## C=CC(=O)N1CCC[C@@H](n2nc(-c3ccc(OC4CCCCC4)cc3)c3c(N)n[nH]c(=O)c32)C1 [Example 80]
[1]
  IC50: < 100 nM

## CN(C)C/C=C/C(=O)N[C@H]1CC[C@@H](n2nc(-c3ccc(Oc4ccccc4)cc3)c3c(N)n[nH]c(=O)c32)CC1 [Example 59]
[1]
  IC50: < 100 nM

## C=CC(=O)Nc1cccc(-n2cnc3cnc(Nc4ccc(OCCOC)cc4)nc32)c1 [Example 24]
[1]
  IC50: 1000 to 10000 nM
